Experimental data as given in article PMC6891286, “Towards the Development of an In vivo Chemical Probe for Cyclin G Associated Kinase (GAK)” (Molecules, 2019).

What was measured:
Assay in all cases: KINOMEscan
Type in all cases: binding
ALK = molecular target: T1, ALK (Homo sapiens, UniProt Q9UM73); conditions: 35 at 1 µM; read-out: % inhibition
T1 construct: purchased Eurofins DiscoverX (KINOMEscan)
Protocol: (§1) KinomeScan Assay on 35 was performed as previously described at EuroFins DiscoverX (Fremont, CA, USA).

ASK2 = molecular target: T2, ASK2 (Homo sapiens, UniProt O95382); conditions: 35 at 1 µM; read-out: % inhibition
T2 construct: purchased Eurofins DiscoverX (KINOMEscan)
Protocol: as §1

BIKE = molecular target: T3, BIKE (Homo sapiens, UniProt Q9NSY1); conditions: 35 at 1 µM; read-out: % inhibition
T3 construct: purchased Eurofins DiscoverX (KINOMEscan)
Protocol: as §1

BMX = molecular target: T4, BMX (Homo sapiens, UniProt P51813); conditions: 35 at 1 µM; read-out: % inhibition
T4 construct: purchased Eurofins DiscoverX (KINOMEscan)
Protocol: as §1

CAMK2G = molecular target: T5, CAMK2G (Homo sapiens, UniProt Q13555); conditions: 35 at 1 µM; read-out: % inhibition
T5 construct: purchased Eurofins DiscoverX (KINOMEscan)
Protocol: as §1

CDK2 = molecular target: T6, CDK2 (Homo sapiens, UniProt P24941); conditions: 35 at 1 µM; read-out: % inhibition
T6 construct: purchased Eurofins DiscoverX (KINOMEscan)
Protocol: as §1

CSNK1D = molecular target: T7, CSNK1D (Homo sapiens, UniProt P48730); conditions: 35 at 1 µM; read-out: % inhibition
T7 construct: purchased Eurofins DiscoverX (KINOMEscan)
Protocol: as §1

DDR1 = molecular target: T8, DDR1 (Homo sapiens, UniProt Q08345); conditions: 35 at 1 µM; read-out: % inhibition
T8 construct: purchased Eurofins DiscoverX (KINOMEscan)
Protocol: as §1

DMPK = molecular target: T9, DMPK (Homo sapiens, UniProt Q09013); conditions: 35 at 1 µM; read-out: % inhibition
T9 construct: purchased Eurofins DiscoverX (KINOMEscan)
Protocol: as §1

ERBB4 = molecular target: T10, ERBB4 (Homo sapiens, UniProt Q15303); conditions: 35 at 1 µM; read-out: % inhibition
T10 construct: purchased Eurofins DiscoverX (KINOMEscan)
Protocol: as §1

FGFR1 = molecular target: T11, FGFR1 (Homo sapiens, UniProt P11362); conditions: 35 at 1 µM; read-out: % inhibition
T11 construct: purchased Eurofins DiscoverX (KINOMEscan)
Protocol: as §1

FGFR4 = molecular target: T12, FGFR4 (Homo sapiens, UniProt P22455); conditions: 35 at 1 µM; read-out: % inhibition
T12 construct: purchased Eurofins DiscoverX (KINOMEscan)
Protocol: as §1

FLT3(K663Q) = molecular target: T13, FLT3(K663Q) (Homo sapiens, UniProt P36888, K663Q); conditions: 35 at 1 µM; read-out: % inhibition
T13 construct: purchased Eurofins DiscoverX (KINOMEscan)
Protocol: as §1

GSK3A = molecular target: T14, GSK3A (Homo sapiens, UniProt P49840); conditions: 35 at 1 µM; read-out: % inhibition
T14 construct: purchased Eurofins DiscoverX (KINOMEscan)
Protocol: as §1

IKK-alpha = molecular target: T15, IKK-alpha (Homo sapiens, UniProt O15111); conditions: 35 at 1 µM; read-out: % inhibition
T15 construct: purchased Eurofins DiscoverX (KINOMEscan)
Protocol: as §1

IKK-epsilon = molecular target: T16, IKK-epsilon (Homo sapiens, UniProt Q14164); conditions: 35 at 1 µM; read-out: % inhibition
T16 construct: purchased Eurofins DiscoverX (KINOMEscan)
T16 sequence (Q14164 whole entry): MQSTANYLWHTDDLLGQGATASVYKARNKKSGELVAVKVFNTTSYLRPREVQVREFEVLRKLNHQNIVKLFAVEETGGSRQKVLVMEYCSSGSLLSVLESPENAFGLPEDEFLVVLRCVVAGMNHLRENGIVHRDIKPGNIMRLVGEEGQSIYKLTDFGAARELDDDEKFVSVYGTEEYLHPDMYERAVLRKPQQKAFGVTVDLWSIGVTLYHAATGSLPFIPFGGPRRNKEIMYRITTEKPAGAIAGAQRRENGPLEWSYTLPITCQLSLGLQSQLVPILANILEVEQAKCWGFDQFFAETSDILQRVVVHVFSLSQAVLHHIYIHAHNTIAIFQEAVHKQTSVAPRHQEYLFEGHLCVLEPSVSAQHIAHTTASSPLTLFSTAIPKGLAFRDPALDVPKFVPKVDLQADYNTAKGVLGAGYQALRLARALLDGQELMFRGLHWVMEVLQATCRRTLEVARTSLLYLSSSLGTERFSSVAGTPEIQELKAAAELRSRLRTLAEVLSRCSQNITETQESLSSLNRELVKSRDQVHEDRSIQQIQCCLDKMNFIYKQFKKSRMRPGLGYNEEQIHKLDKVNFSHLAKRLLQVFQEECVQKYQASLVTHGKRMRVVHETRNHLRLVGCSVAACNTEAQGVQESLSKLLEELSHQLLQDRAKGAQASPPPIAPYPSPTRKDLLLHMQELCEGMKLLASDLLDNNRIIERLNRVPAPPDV
Protocol: as §1

KIT = molecular target: T17, KIT (Homo sapiens, UniProt P10721); conditions: 35 at 1 µM; read-out: % inhibition
T17 construct: purchased Eurofins DiscoverX (KINOMEscan)
Protocol: as §1

KIT(V559D,T670I) = molecular target: T18, KIT(V559D,T670I) (Homo sapiens, UniProt P10721, T670I/V559D); conditions: 35 at 1 µM; read-out: % inhibition
T18 construct: purchased Eurofins DiscoverX (KINOMEscan)
Protocol: as §1

LATS1 = molecular target: T19, LATS1 (Homo sapiens, UniProt O95835); conditions: 35 at 1 µM; read-out: % inhibition
T19 construct: purchased Eurofins DiscoverX (KINOMEscan)
Protocol: as §1

MAPKAPK5 = molecular target: T20, MAPKAPK5 (Homo sapiens, UniProt Q8IW41); conditions: 35 at 1 µM; read-out: % inhibition
T20 construct: purchased Eurofins DiscoverX (KINOMEscan)
Protocol: as §1

MET(M1250T) = molecular target: T21, MET(M1250T) (Homo sapiens, UniProt P08581, M1250T); conditions: 35 at 1 µM; read-out: % inhibition
T21 construct: purchased Eurofins DiscoverX (KINOMEscan)
Protocol: as §1

MLK1 = molecular target: T22, MLK1 (Homo sapiens, UniProt P80192); conditions: 35 at 1 µM; read-out: % inhibition
T22 construct: purchased Eurofins DiscoverX (KINOMEscan)
Protocol: as §1

MRCKB = molecular target: T23, MRCKB (Homo sapiens, UniProt Q9Y5S2); conditions: 35 at 1 µM; read-out: % inhibition
T23 construct: purchased Eurofins DiscoverX (KINOMEscan)
Protocol: as §1

MST1R = molecular target: T24, MST1R (Homo sapiens, UniProt Q04912); conditions: 35 at 1 µM; read-out: % inhibition
T24 construct: purchased Eurofins DiscoverX (KINOMEscan)
Protocol: as §1

NEK11 = molecular target: T25, NEK11 (Homo sapiens, UniProt Q8NG66); conditions: 35 at 1 µM; read-out: % inhibition
T25 construct: purchased Eurofins DiscoverX (KINOMEscan)
T25 sequence (Q8NG66 whole entry): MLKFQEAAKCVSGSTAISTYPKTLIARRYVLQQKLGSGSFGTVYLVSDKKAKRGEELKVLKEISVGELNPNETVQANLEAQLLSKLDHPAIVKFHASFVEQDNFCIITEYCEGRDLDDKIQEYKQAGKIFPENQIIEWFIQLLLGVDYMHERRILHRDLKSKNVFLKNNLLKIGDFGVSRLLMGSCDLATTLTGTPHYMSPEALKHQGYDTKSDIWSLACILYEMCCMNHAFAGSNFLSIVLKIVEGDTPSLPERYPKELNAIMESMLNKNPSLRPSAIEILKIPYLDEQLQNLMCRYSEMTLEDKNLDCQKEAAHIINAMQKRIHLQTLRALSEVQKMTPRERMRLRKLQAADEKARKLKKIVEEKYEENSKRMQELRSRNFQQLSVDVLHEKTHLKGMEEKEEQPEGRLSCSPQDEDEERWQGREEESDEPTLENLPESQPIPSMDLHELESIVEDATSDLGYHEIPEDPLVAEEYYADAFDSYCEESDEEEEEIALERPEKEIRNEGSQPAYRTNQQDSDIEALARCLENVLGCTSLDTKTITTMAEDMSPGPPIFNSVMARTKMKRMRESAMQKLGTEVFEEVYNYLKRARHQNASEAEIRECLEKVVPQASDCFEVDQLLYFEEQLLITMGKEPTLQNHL
Protocol: as §1

NEK5 = molecular target: T26, NEK5 (Homo sapiens, UniProt Q6P3R8); conditions: 35 at 1 µM; read-out: % inhibition
T26 construct: purchased Eurofins DiscoverX (KINOMEscan)
Protocol: as §1

PCTK3 = molecular target: T27, PCTK3 (Homo sapiens, UniProt Q07002); conditions: 35 at 1 µM; read-out: % inhibition
T27 construct: purchased Eurofins DiscoverX (KINOMEscan)
Protocol: as §1

PFCDPK1(P.falciparum) = molecular target: T28, PFCDPK1(P.falciparum) (Plasmodium falciparum, UniProt P62344); conditions: read-out: % inhibition
T28 construct: purchased Eurofins DiscoverX (KINOMEscan)
T28 sequence (P62344 whole entry): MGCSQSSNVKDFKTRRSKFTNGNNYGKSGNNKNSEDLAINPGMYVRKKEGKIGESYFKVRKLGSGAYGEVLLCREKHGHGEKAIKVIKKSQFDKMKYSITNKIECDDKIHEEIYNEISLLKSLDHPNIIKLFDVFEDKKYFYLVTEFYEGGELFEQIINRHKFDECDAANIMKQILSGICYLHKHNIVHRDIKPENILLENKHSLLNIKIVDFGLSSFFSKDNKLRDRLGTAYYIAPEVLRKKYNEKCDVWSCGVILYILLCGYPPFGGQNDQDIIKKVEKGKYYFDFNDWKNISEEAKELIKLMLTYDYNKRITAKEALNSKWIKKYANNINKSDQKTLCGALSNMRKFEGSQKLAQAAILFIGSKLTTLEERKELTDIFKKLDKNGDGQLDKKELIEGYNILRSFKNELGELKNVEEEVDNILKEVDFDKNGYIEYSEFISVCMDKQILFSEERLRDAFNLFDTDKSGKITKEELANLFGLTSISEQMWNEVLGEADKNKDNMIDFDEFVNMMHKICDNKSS
Protocol: as §1

PIK3CA(E542K) = molecular target: T29, PIK3CA(E542K) (Homo sapiens, UniProt P42336, E542K); conditions: 35 at 1 µM; read-out: % inhibition
T29 construct: purchased Eurofins DiscoverX (KINOMEscan)
T29 sequence (P42336 whole entry E542K): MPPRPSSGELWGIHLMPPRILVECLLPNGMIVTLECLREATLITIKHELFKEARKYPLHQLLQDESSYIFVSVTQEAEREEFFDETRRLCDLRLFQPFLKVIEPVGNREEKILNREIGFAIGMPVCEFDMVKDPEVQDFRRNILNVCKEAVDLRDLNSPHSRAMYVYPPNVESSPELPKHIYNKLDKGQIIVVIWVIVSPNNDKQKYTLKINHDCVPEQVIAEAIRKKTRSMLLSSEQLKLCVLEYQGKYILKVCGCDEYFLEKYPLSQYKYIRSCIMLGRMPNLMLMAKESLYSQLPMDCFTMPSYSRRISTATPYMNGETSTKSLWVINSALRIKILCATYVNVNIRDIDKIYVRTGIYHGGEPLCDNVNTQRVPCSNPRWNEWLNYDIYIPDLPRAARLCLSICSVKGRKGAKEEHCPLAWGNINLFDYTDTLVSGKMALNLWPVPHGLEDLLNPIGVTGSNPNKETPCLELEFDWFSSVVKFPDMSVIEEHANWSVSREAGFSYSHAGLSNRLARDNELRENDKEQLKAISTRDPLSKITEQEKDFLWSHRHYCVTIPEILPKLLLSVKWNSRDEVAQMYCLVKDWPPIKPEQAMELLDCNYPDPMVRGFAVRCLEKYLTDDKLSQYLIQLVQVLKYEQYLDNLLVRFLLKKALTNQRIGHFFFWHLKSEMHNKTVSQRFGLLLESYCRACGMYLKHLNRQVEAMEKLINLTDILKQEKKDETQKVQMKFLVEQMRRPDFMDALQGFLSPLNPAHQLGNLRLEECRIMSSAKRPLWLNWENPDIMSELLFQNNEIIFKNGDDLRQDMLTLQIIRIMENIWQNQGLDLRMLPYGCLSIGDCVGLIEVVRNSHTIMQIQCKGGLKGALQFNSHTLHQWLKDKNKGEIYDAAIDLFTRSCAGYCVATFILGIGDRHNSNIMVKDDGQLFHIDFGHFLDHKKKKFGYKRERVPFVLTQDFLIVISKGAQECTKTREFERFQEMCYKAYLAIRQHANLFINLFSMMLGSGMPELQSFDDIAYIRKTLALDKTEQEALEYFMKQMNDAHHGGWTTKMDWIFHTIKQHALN
Protocol: as §1

PIK3CA(H1047L) = molecular target: T30, PIK3CA(H1047L) (Homo sapiens, UniProt P42336, H1047L); conditions: 35 at 1 µM; read-out: % inhibition
T30 construct: purchased Eurofins DiscoverX (KINOMEscan)
T30 sequence (P42336 whole entry H1047L): as the sequence (P42336 whole entry E542K) above, with K542E, H1047L counted along it
Protocol: as §1

PIK3CG = molecular target: T31, PIK3CG (Homo sapiens, UniProt P48736); conditions: 35 at 1 µM; read-out: % inhibition
T31 construct: purchased Eurofins DiscoverX (KINOMEscan)
Protocol: as §1

PIP5K2B = molecular target: T32, PIP5K2B (Homo sapiens, UniProt P78356); conditions: 35 at 1 µM; read-out: % inhibition
T32 construct: purchased Eurofins DiscoverX (KINOMEscan)
Protocol: as §1

PRKCD = molecular target: T33, PRKCD (Homo sapiens, UniProt Q05655); conditions: 35 at 1 µM; read-out: % inhibition
T33 construct: purchased Eurofins DiscoverX (KINOMEscan)
T33 sequence (Q05655 whole entry): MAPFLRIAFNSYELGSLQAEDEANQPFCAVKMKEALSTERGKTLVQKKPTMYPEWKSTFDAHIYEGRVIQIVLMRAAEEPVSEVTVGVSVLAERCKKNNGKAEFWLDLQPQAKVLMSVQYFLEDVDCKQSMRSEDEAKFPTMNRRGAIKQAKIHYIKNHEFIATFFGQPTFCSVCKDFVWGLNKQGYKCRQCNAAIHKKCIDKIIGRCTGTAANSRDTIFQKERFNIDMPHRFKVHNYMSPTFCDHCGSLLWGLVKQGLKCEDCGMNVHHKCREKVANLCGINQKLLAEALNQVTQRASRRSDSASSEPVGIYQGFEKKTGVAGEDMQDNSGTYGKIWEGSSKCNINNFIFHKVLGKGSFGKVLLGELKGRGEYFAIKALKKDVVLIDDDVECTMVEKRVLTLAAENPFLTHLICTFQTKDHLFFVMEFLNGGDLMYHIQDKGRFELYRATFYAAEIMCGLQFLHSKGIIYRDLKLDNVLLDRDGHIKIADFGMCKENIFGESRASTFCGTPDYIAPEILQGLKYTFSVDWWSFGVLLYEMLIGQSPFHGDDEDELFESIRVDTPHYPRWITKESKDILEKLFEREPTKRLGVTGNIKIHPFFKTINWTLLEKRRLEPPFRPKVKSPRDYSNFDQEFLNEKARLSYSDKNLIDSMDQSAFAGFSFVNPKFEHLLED
Protocol: as §1

PRKR = molecular target: T34, PRKR (Homo sapiens, UniProt P19525); conditions: 35 at 1 µM; read-out: % inhibition
T34 construct: purchased Eurofins DiscoverX (KINOMEscan)
Protocol: as §1

[1] = molecular target: T35, RPS6KA5(Kin.Dom.1-N-terminal) (Homo sapiens, UniProt O75582); conditions: 35 at 1 µM; read-out: % inhibition
T35 construct: RPS6KA5(Kin.Dom.1-N-terminal); purchased Eurofins DiscoverX (KINOMEscan)
Protocol: as §1

[2] = molecular target: T36, RSK4(Kin.Dom.1-N-terminal) (Homo sapiens, UniProt Q9UK32); conditions: 35 at 1 µM; read-out: % inhibition
T36 construct: RSK4(Kin.Dom.1-N-terminal); purchased Eurofins DiscoverX (KINOMEscan)
T36 sequence (Q9UK32 1-400 limits assumed): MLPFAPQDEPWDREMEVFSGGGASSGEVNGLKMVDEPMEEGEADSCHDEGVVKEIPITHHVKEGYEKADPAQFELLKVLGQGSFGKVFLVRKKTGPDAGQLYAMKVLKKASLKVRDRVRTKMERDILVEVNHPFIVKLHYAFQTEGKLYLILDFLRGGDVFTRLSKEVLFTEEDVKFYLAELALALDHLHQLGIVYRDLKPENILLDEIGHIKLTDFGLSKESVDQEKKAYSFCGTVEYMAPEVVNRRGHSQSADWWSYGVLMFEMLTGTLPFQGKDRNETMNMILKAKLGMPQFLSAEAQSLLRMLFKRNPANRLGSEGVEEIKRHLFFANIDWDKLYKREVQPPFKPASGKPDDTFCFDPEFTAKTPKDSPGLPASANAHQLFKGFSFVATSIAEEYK
Protocol: as §1

SRMS = molecular target: T37, SRMS (Homo sapiens, UniProt Q9H3Y6); conditions: 35 at 1 µM; read-out: % inhibition
T37 construct: purchased Eurofins DiscoverX (KINOMEscan)
Protocol: as §1

SgK110 = molecular target: T38, SgK110 (Homo sapiens, UniProt P0C264); conditions: 35 at 1 µM; read-out: % inhibition
T38 construct: purchased Eurofins DiscoverX (KINOMEscan)
T38 sequence (P0C264 whole entry): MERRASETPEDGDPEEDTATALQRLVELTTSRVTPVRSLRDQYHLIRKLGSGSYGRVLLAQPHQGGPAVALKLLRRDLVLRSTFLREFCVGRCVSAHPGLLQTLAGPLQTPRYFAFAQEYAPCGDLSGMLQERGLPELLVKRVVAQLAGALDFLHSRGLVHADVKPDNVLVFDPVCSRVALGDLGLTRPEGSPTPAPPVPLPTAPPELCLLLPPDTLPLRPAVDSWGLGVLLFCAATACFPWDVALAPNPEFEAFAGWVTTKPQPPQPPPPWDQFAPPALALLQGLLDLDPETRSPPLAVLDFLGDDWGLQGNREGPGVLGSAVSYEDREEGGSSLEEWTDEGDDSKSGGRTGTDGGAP
Protocol: as §1

TAOK3 = molecular target: T39, TAOK3 (Homo sapiens, UniProt Q9H2K8); conditions: 35 at 1 µM; read-out: % inhibition
T39 construct: purchased Eurofins DiscoverX (KINOMEscan)
Protocol: as §1

[3] = molecular target: T40, TYK2(JH2domain-pseudokinase) (Homo sapiens, UniProt P29597); conditions: 35 at 1 µM; read-out: % inhibition
T40 construct: TYK2(JH2domain-pseudokinase); purchased Eurofins DiscoverX (KINOMEscan)
Protocol: as §1

YES = molecular target: T41, YES (Homo sapiens, UniProt P07947); conditions: 35 at 1 µM; read-out: % inhibition
T41 construct: purchased EuroFins DiscoverX (Fremont, CA, USA)
T41 sequence (P07947 whole entry): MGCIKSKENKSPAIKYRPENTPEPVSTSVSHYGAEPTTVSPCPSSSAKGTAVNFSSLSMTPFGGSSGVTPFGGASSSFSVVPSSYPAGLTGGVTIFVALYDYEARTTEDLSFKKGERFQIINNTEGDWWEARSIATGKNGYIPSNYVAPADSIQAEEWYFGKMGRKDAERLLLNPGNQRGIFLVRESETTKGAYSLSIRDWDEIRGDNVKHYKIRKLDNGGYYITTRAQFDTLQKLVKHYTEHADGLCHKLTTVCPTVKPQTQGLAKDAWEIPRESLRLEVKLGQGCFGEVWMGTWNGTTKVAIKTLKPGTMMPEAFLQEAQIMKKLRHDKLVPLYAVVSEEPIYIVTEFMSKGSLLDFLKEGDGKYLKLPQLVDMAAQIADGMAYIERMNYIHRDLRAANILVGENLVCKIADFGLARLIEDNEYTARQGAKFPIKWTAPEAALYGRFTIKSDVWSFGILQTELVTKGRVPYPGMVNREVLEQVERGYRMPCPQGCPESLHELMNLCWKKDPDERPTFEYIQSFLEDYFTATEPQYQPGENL
Protocol: as §1

## Brc1ccc2nccc(Nc3ccc4cn[nH]c4c3)c2c1 [Compound 35, 6-Bromo-N-(1H-indazol-6-yl)quinolin-4-amine]
ALK
  activity at 1 µM: 100%
ASK2
  activity at 1 µM: 100%
BIKE
  activity at 1 µM: 100%
BMX
  activity at 1 µM: 100%
CAMK2G
  activity at 1 µM: 100%
CDK2
  activity at 1 µM: 100%
CSNK1D
  activity at 1 µM: 94%
DDR1
  activity at 1 µM: 79%
DMPK
  activity at 1 µM: 100%
ERBB4
  activity at 1 µM: 100%
FGFR1
  activity at 1 µM: 100%
FGFR4
  activity at 1 µM: 100%
FLT3(K663Q)
  activity at 1 µM: 97%
GSK3A
  activity at 1 µM: 100%
IKK-alpha
  activity at 1 µM: 100%
IKK-epsilon
  activity at 1 µM: 95%
KIT
  activity at 1 µM: 100%
KIT(V559D,T670I)
  activity at 1 µM: 100%
LATS1
  activity at 1 µM: 100%
MAPKAPK5
  activity at 1 µM: 100%
MET(M1250T)
  activity at 1 µM: 100%
MLK1
  activity at 1 µM: 100%
MRCKB
  activity at 1 µM: 100%
MST1R
  activity at 1 µM: 100%
NEK11
  activity at 1 µM: 100%
NEK5
  activity at 1 µM: 93%
PCTK3
  activity at 1 µM: 100%
PFCDPK1(P.falciparum)
  activity at 1 µM: 63%
PIK3CA(E542K)
  activity at 1 µM: 100%
PIK3CA(H1047L)
  activity at 1 µM: 87%
PIK3CG
  activity at 1 µM: 100%
PIP5K2B
  activity at 1 µM: 100%
PRKCD
  activity at 1 µM: 100%
PRKR
  activity at 1 µM: 100%
[1]
  activity at 1 µM: 100%
[2]
  activity at 1 µM: 100%
SRMS
  activity at 1 µM: 87%
SgK110
  activity at 1 µM: 100%
TAOK3
  activity at 1 µM: 97%
[3]
  activity at 1 µM: 100%
YES
  activity at 1 µM: 100%
